Assay results: US20240308998A1, “PYRROLOPYRIDONE DERIVATIVES USEFUL IN THE TREATMENT OF CANCER” (Tay Therapeutics Limited, priority 2021, published 2024)
Each block holds one molecule with its values, some of them ahead of it.

How the values were obtained:
BRD4 BD1 = biological target: T1, BRD4 BD1 (Homo sapiens, UniProt O60885); assay: NanoBRET bromodomain assay, BRD4 BD1; assay type: cell-based; conditions: HEK293 cells transfected with NanoLuc-BRD4-BD1
T1 construct: HEK293 cells were transfected using NanoLuc-BRD4-BD1 or NanoLuc-BRD4-BD2 fusion vectors; host or cells: HEK293
Method: (§1) HEK293 cells were transfected using NanoLuc-BRD4-BD1 or NanoLuc-BRD4-BD2 fusion vectors and incubated at 37° C. in an atmosphere of 5% CO2 for 20-24 hours. The transfected cells were then dispensed into 96-well plates using 90 μl cell suspension per well containing 2×10^5 cells/ml in Opti-MEM and 1x final concentration of tracer. 90 μl per well of cell suspension without tracer was also dispensed into at least 3 wells as “No tracer control samples” for background correction. Serially diluted test compounds were prepared at 1000× concentration in DMSO and further diluted to 10× concentration in Opti-MEM. 10 μl per well of the serially diluted 10× test compound was added to the 96-well plates containing cells with 1x tracer. Plates were then incubated at 37° C.+5% C02 incubator for 2 hours. Immediately prior to BRET measurements, a 3x solution consisting of 1:166 dilution of Nano-Glo® Substrate plus a 1:500 dilution of Extracellular NanoLuc Inhibitor in Opti-MEM was prepared and 50 μl per well was added to the cells. Donor emission (450 nm) and acceptor emission (610 nm) were measured using PHERAstar (BMG LabTech). For data analysis, the raw BRET ratio was generated and converted to milliBRET units with background correction using the formula: [(Acceptorsample/Donorsample)−(Acceptorno tracer control/Donorno tracer control)]×1000. The mBU data was plotted as a function of compound concentration and IC50s for BRET assay were determined by nonlinear regression analysis of concentration response curves using the GraphPad Prism software.

BRD4 BD2 = biological target: T2, BRD4 BD2 (Homo sapiens, UniProt O60885); assay: NanoBRET bromodomain assay, BRD4 BD2; assay type: cell-based; conditions: for Fold selectivity BRD4 BD1/BD2: IC50 BD1/IC50 BD2; for IC50: NanoBRET, HEK293 cells transfected with NanoLuc-BRD4-BD2
T2 construct: HEK293 cells were transfected using NanoLuc-BRD4-BD1 or NanoLuc-BRD4-BD2 fusion vectors; host or cells: HEK293
Method: as §1
Fold Selectivity Calculated (IC50 BD1/IC50 BD2).

IC50 (BRD4 BD1): > 1 µM
Fold selectivity BRD4 BD1/BD2 (BRD4 BD2): xxx (Fold >200)
IC50 (BRD4 BD2): ≤ 0.05 µM
SMILES: Cc1cc(-c2cc3c(-c4cc(=O)n(C)cc4Oc4c(C)cccc4C)cn(C)c(=O)c3[nH]2)ncn1 [Example 38, 4-(5-(2,6-dimethylphenoxy)-1-methyl-2-oxo-1,2-dihydropyridin-4-yl)-6-methyl-2-(6-methylpyrimidin-4-yl)-1,6-dihydro-7H-pyrrolo[2,3-c] pyridin-7-one]

IC50 (BRD4 BD1): > 1 µM
Fold selectivity BRD4 BD1/BD2 (BRD4 BD2): xx (Fold >50 and ≤200)
IC50 (BRD4 BD2): 0.05 to 0.2 µM
SMILES: Cc1cccc(C)c1Oc1cn(C2COC2)c(=O)cc1-c1cn(C)c(=O)c2[nH]c(-c3ccccc3F)cc12 [Example 41, 4-(5-(2,6-dimethylphenoxy)-1-(oxetan-3-yl)-2-oxo-1,2-dihydropyridin-4-yl)-2-(2-fluorophenyl)-6-methyl-1,6-dihydro-7H-pyrrolo[2,3-c] pyridin-7-one]

IC50 (BRD4 BD1): 0.05 to 0.5 µM
Fold selectivity BRD4 BD1/BD2 (BRD4 BD2): x (Fold >2 and ≤50)
IC50 (BRD4 BD2): ≤ 0.05 µM
SMILES: Cc1cccc(C)c1Oc1cn(C2COC2)c(=O)cc1-c1cn(C)c(=O)c2[nH]c(-c3cnn(C)c3C)cc12 [Example 40, 2-(1,5-dimethyl-1H-pyrazol-4-yl)-4-(5-(2,6-dimethylphenoxy)-1-(oxetan-3-yl)-2-oxo-1,2-dihydropyridin-4-yl)-6-methyl-1,6-dihydro-7H-pyrrolo[2,3-c] pyridin-7-one]

IC50 (BRD4 BD1): > 1 µM
Fold selectivity BRD4 BD1/BD2 (BRD4 BD2): xx (Fold >50 and ≤200)
IC50 (BRD4 BD2): 0.05 to 0.2 µM
SMILES: Cc1cccc(C)c1Oc1cn(C)c(=O)cc1-c1cn(C)c(=O)c2[nH]c(-c3ccnnc3)cc12 [Example 27, 4-(5-(2,6-dimethylphenoxy)-1-methyl-2-oxo-1,2-dihydropyridin-4-yl)-6-methyl-2-(pyridazin-4-yl)-1,6-dihydro-7H-pyrrolo[2,3-c] pyridin-7-one]

IC50 (BRD4 BD1): > 1 µM
Fold selectivity BRD4 BD1/BD2 (BRD4 BD2): xxx (Fold >200)
IC50 (BRD4 BD2): ≤ 0.05 µM
SMILES: Cc1cccc(C)c1Oc1cn(C)c(=O)cc1-c1cn(C)c(=O)c2[nH]c(-c3ccccc3C#N)cc12 [Example 48, 2-{4-[5-(2,6-dimethylphenoxy)-1-methyl-2-oxopyridin-4-yl]-6-methyl-7-oxo-1H-pyrrolo[2,3-c]pyridin-2-yl}benzonitrile]

IC50 (BRD4 BD1): > 1 µM
Fold selectivity BRD4 BD1/BD2 (BRD4 BD2): xx (Fold >50 and ≤200)
IC50 (BRD4 BD2): 0.05 to 0.2 µM
SMILES: Cc1cccc(C)c1Oc1cn(C2CNC2)c(=O)cc1-c1cn(C)c(=O)c2[nH]c(-c3cn(C(C)C)nc3C)cc12 [Example 42, 4-(1-(azetidin-3-yl)-5-(2,6-dimethylphenoxy)-2-oxo-1,2-dihydropyridin-4-yl)-2-(1-isopropyl-3-methyl-1H-pyrazol-4-yl)-6-methyl-1,6-dihydro-7H-pyrrolo[2,3-c]pyridin-7-one]

IC50 (BRD4 BD1): 0.5 to 1 µM
Fold selectivity BRD4 BD1/BD2 (BRD4 BD2): x (Fold >2 and ≤50)
IC50 (BRD4 BD2): ≤ 0.05 µM
SMILES: Cc1cc(-c2cc3c(-c4cc(=O)n(C)cc4Oc4c(C)cccc4C)cn(C)c(=O)c3[nH]2)ccn1 [Example 45, 4-(5-(2,6-dimethylphenoxy)-1-methyl-2-oxo-1,2-dihydropyridin-4-yl)-6-methyl-2-(2-methylpyridin-4-yl)-1,6-dihydro-7H-pyrrolo[2,3-c]pyridin-7-one]

IC50 (BRD4 BD1): > 1 µM
Fold selectivity BRD4 BD1/BD2 (BRD4 BD2): xxx (Fold >200)
IC50 (BRD4 BD2): ≤ 0.05 µM
SMILES: Cc1cccc(C)c1Oc1cn(C)c(=O)cc1-c1cn(C)c(=O)c2[nH]c(-c3cc(F)ccc3F)cc12 [Example 46, 2-(2,5-difluorophenyl)-4-(5-(2,6-dimethylphenoxy)-1-methyl-2-oxo-1,2-dihydropyridin-4-yl)-6-methyl-1,6-dihydro-7H-pyrrolo[2,3-c]pyridin-7-one]

IC50 (BRD4 BD1): > 1 µM
Fold selectivity BRD4 BD1/BD2 (BRD4 BD2): x (Fold >2 and ≤50)
IC50 (BRD4 BD2): ≤ 0.05 µM
SMILES: Cc1cccc(C)c1Oc1cn(C)c(=O)cc1-c1cn(C)c(=O)c2[nH]c(-c3cnn(CS(C)(=O)=O)c3)cc12 [Example 65, 4-(5-(2,6-dimethylphenoxy)-1-methyl-2-oxo-1,2-dihydropyridin-4-yl)-6-methyl-2-(1-((methylsulfonyl)methyl)-1H-pyrazol-4-yl)-1,6-dihydro-7H-pyrrolo[2,3-c]pyridin-7-one]

IC50 (BRD4 BD1): > 1 µM
Fold selectivity BRD4 BD1/BD2 (BRD4 BD2): x (Fold >2 and ≤50)
IC50 (BRD4 BD2): > 1 µM
SMILES: Cc1cccc(C)c1Oc1cn(C2CNC2)c(=O)cc1-c1cn(C)c(=O)c2[nH]c(-c3cnn(C(C)C)c3C)cc12 [Example 43, 4-(1-(azetidin-3-yl)-5-(2,6-dimethylphenoxy)-2-oxo-1,2-dihydropyridin-4-yl)-2-(1-isopropyl-5-methyl-1H-pyrazol-4-yl)-6-methyl-1,6-dihydro-7H-pyrrolo[2,3-c] pyridin-7-one]

The next lines start with the molecule.

SMILES: Cc1cccc(C)c1Oc1cn(C)c(=O)cc1-c1cn(C)c(=O)c2[nH]c(-c3c(F)cccc3F)cc12 [Example 37, 2-(2,6-difluorophenyl)-4-(5-(2,6-dimethylphenoxy)-1-methyl-2-oxo-1,2-dihydropyridin-4-yl)-6-methyl-1,6-dihydro-7H-pyrrolo[2,3-c] pyridin-7-one]
IC50 (BRD4 BD1): > 1 µM
Fold selectivity BRD4 BD1/BD2 (BRD4 BD2): xx (Fold >50 and ≤200)
IC50 (BRD4 BD2): 0.05 to 0.2 µM

SMILES: CC#Cc1cn(C)c(=O)cc1-c1cn(C)c(=O)c2[nH]c(-c3cnn(C(C)C)c3)cc12 [Example 57, 4-[2-(1-isopropylpyrazol-4-yl)-6-methyl-7-oxo-1H-pyrrolo[2,3-c]pyridin-4-yl]-1-methyl-5-(prop-1-yn-1-yl)pyridin-2-one]
IC50 (BRD4 BD1): 0.05 to 0.5 µM
Fold selectivity BRD4 BD1/BD2 (BRD4 BD2): x (Fold >2 and ≤50)
IC50 (BRD4 BD2): ≤ 0.05 µM

SMILES: Cc1cccc(C)c1Oc1cn(C)c(=O)cc1-c1cn(C)c(=O)c2[nH]c(-c3cc(C(F)(F)F)ccc3F)cc12 [Example 34, 4-(5-(2,6-dimethylphenoxy)-1-methyl-2-oxo-1,2-dihydropyridin-4-yl)-2-(2-fluoro-5-(trifluoromethyl)phenyl)-6-methyl-1,6-dihydro-7H-pyrrolo[2,3-c] pyridin-7-one]
IC50 (BRD4 BD1): > 1 µM
Fold selectivity BRD4 BD1/BD2 (BRD4 BD2): xxx (Fold >200)
IC50 (BRD4 BD2): ≤ 0.05 µM

SMILES: Cn1cc(C2CCCC2)c(-c2cn(C)c(=O)c3[nH]c(-c4ccccc4)cc23)cc1=O [Example 55, 5-cyclopentyl-1-methyl-4-{6-methyl-7-oxo-2-phenyl-1H-pyrrolo[2,3-c]pyridin-4-yl}pyridin-2-one]
IC50 (BRD4 BD1): 0.05 to 0.5 µM
Fold selectivity BRD4 BD1/BD2 (BRD4 BD2): x (Fold >2 and ≤50)
IC50 (BRD4 BD2): ≤ 0.05 µM

SMILES: C#Cc1cn(C)c(=O)cc1-c1cn(C)c(=O)c2[nH]c(-c3cnn(C(C)C)c3)cc12 [Example 56, 5-ethynyl-4-[2-(1-isopropylpyrazol-4-yl)-6-methyl-7-oxo-1H-pyrrolo[2,3-c]pyridin-4-yl]-1-methylpyridin-2-one]
IC50 (BRD4 BD1): 0.05 to 0.5 µM
Fold selectivity BRD4 BD1/BD2 (BRD4 BD2): x (Fold >2 and ≤50)
IC50 (BRD4 BD2): ≤ 0.05 µM

SMILES: CC(C)n1cc(-c2cc3c(-c4cc(=O)n(C)cc4C4CCCC4)cn(C)c(=O)c3[nH]2)cn1 [Example 53, 4-(5-cyclopentyl-1-methyl-2-oxo-1,2-dihydropyridin-4-yl)-2-(1-isopropyl-1H-pyrazol-4-yl)-6-methyl-1,6-dihydro-7H-pyrrolo[2,3-c]pyridin-7-one]
IC50 (BRD4 BD1): 0.05 to 0.5 µM
Fold selectivity BRD4 BD1/BD2 (BRD4 BD2): xx (Fold >50 and ≤200)
IC50 (BRD4 BD2): ≤ 0.05 µM

SMILES: Cc1cc(-c2cc3c(-c4cc(=O)n(C)cc4C4CCCC4)cn(C)c(=O)c3[nH]2)n(C)n1 [Example 52, 5-cyclopentyl-4-[2-(2,5-dimethylpyrazol-3-yl)-6-methyl-7-oxo-1H-pyrrolo[2,3-c]pyridin-4-yl]-1-methylpyridin-2-one]
IC50 (BRD4 BD1): 0.05 to 0.5 µM
Fold selectivity BRD4 BD1/BD2 (BRD4 BD2): x (Fold >2 and ≤50)
IC50 (BRD4 BD2): ≤ 0.05 µM

SMILES: Cc1cc(-c2cc3c(-c4cc(=O)n(C)cc4C4CCCC4)cn(C)c(=O)c3[nH]2)cc(C)n1 [Example 54, 5-cyclopentyl-4-[2-(2,6-dimethylpyridin-4-yl)-6-methyl-7-oxo-1H-pyrrolo[2,3-c]pyridin-4-yl]-1-methylpyridin-2-one]
IC50 (BRD4 BD1): 0.05 to 0.5 µM
Fold selectivity BRD4 BD1/BD2 (BRD4 BD2): xx (Fold >50 and ≤200)
IC50 (BRD4 BD2): ≤ 0.05 µM

SMILES: CC#Cc1cn(C)c(=O)cc1-c1cn(C)c(=O)c2[nH]c(-c3cc(C)nc(C)c3)cc12 [Example 58, 4-[2-(2,6-dimethylpyridin-4-yl)-6-methyl-7-oxo-1H-pyrrolo[2,3-c]pyridin-4-yl]-1-methyl-5-(prop-1-yn-1-yl)pyridin-2-one]
IC50 (BRD4 BD1): > 1 µM
Fold selectivity BRD4 BD1/BD2 (BRD4 BD2): xxx (Fold >200)
IC50 (BRD4 BD2): ≤ 0.05 µM

SMILES: Cc1cccc(C)c1Oc1cn(C)c(=O)cc1-c1cn(C)c(=O)c2[nH]c(-c3ncccn3)cc12 [Example 39, 4-(5-(2,6-dimethylphenoxy)-1-methyl-2-oxo-1,2-dihydropyridin-4-yl)-6-methyl-2-(pyrimidin-2-yl)-1,6-dihydro-7H-pyrrolo[2,3-c] pyridin-7-one]
IC50 (BRD4 BD1): > 1 µM
Fold selectivity BRD4 BD1/BD2 (BRD4 BD2): xx (Fold >50 and ≤200)
IC50 (BRD4 BD2): 0.05 to 0.2 µM
